Reference: patent US8937092B2, “Aryl or N-heteroaryl substituted methanesulfonamide derivatives as vanilloid receptor ligands” (Gruenenthal GmbH, priority 2011, dated 2015)

Molecular target: vanilloid receptor 1 (VR1/TRPV1 receptor) (Homo sapiens, UniProt Q8NER1)
Assay: Functional FLIPR Ca2+ influx assay on vanilloid receptor 1, capsaicin (Cap) stimulus
Assay type: cell-based
Conditions: Ki from IC50 by Cheng-Prusoff, read-out: (f) Ki (human being) [nM], Cap
Experimental: Furthermore, preference may be given to compounds according to the invention that cause a 50 percent displacement of capsaicin, which is present at a concentration of 100 nM, in a FLIPR assay with CHO K1 cells which were transfected with the human VR1 gene at a concentration of less than 2,000 nM, preferably less than 1,000 nM, particularly preferably less than 300 nM, most particularly preferably less than 100 nM, even more preferably less than 75 nM, additionally preferably less than 50 nM, most preferably less than 10 nM.
In the process, the Ca^2+ influx is quantified in the FLIPR assay with the aid of a Ca^2+-sensitive dye (type Fluo-4, Molecular Probes Europe BV, Leiden, the Netherlands) in a fluorescent imaging plate reader (FLIPR, Molecular Devices, Sunnyvale, USA), as described hereinafter.
Pharmacological Methods I. Functional Testing Carried Out on the Vanilloid Receptor 1 (VRI/TRPV1 Receptor) […]
The number of cells in the suspension is set to 3×10^5 per mL and 150 μL of this suspension are in each case introduced into a recess in the cell culture plates coated as described hereinbefore. In the incubator the plates are left for two to three days at 37° C., 5% by volume of CO2 and 95% relative humidity. Subsequently, the cells are loaded with 2 μM of Fluo-4 and 0.01% by volume of Pluronic F127 (Molecular Probes Europe BV, Leiden, the Netherlands) in HBSS buffer (Hank's buffered saline solution, Gibco Invitrogen GmbH, Karlsruhe, Germany) for 30 min at 37° C., washed 3 times with HBSS buffer and after further incubation for 15 minutes at room temperature used for Ca^2+ measurement in a FLIPR assay. The Ca^2+-dependent fluorescence is in this case measured before and after the addition of substances (λex=488 nm, λem=540 nm). Quantification is carried out by measuring the highest fluorescence intensity (FC, fluorescence counts) over time.
The FLIPR protocol consists of 2 substance additions. First the compounds to be tested (10 μM) are pipetted onto the cells and the Ca^2+ influx is compared with the control (capsaicin 10 μM). This provides the result in % activation based on the Ca^2+ signal after the addition of 10 μM of capsaicin (CP). After 5 minutes' incubation, 100 nM of capsaicin are applied and the Ca^2+ influx is also determined.
Desensitising agonists and antagonists lead to suppression of the Ca^2+ influx. The % inhibition is calculated compared to the maximum achievable inhibition with 10 μM of capsazepine.
Triple analyses (n=3) are carried out and repeated in at least 3 independent experiments (N=4).
Starting from the percentage displacement caused by different concentrations of the compounds to be tested of general formula I, IC50 inhibitory concentrations which cause a 50-percent displacement of capsaicin were calculated. K, values for the test substances were obtained by conversion by means of the Cheng-Prusoff equation (Cheng, Prusoff; Biochem. Pharmacol. 22, 3099-3108, 1973).
The affinity of the compounds according to the invention for the vanilloid receptor 1 (VR1/TRPV1 receptor) was determined as described herein before (pharmacological method I).
The value after the “@” symbol indicates the concentration at which the inhibition (as a percentage) was respectively determined.

Structure (SMILES)	Ki
CC(C(=O)NCc1ccc(C(F)(F)F)nc1-c1cccc(C(F)F)c1)c1ccc(CNS(C)(=O)=O)c(F)c1 (stereo not shown) [Example 52, N-((2-(3-(difluoromethyl)phenyl)-6-(trifluoromethyl)pyridin-3-yl)methyl)-2-(3-fluoro-4-(methylsulfonamidomethyl)phenyl)propanamide]	7 nM
CC(C(=O)NCc1ccc(C(F)(F)F)nc1-c1cccc(N(C)C)c1)c1ccc(CNS(C)(=O)=O)c(F)c1 (stereo not shown) [Example 55, N-((2-(3-(dimethylamino)phenyl)-6-(trifluoromethyl)pyridin-3-yl)methyl)-2-(3-fluoro-4-(methylsulfonamidomethyl)phenyl)propanamide]	42 nM
CC(C(=O)NCc1ccc(C(F)(F)F)nc1-c1cccc(C#N)c1)c1ccc(CNS(C)(=O)=O)c(F)c1 (stereo not shown) [Example 57, N-((2-(3-cyanophenyl)-6-(trifluoromethyl)pyridin-3-yl)methyl)-2-(3-fluoro-4-(methylsulfonamidomethyl)phenyl)propanamide]	74 nM
CC(C(=O)NCc1ccc(C(F)(F)F)nc1-c1ccc(C#N)cc1)c1ccc(CNS(C)(=O)=O)c(F)c1 (stereo not shown) [Example 58, N-((2-(4-cyanophenyl)-6-(trifluoromethyl)pyridin-3-yl)methyl)-2-(3-fluoro-4-(methylsulfonamidomethyl)phenyl)propanamide]	45 nM
COc1ccccc1-c1nc(C(F)(F)F)ccc1CNC(=O)C(C)c1ccc(CNS(C)(=O)=O)c(F)c1 (stereo not shown) [Example 60, 2-(3-fluoro-4-(methylsulfonamidomethyl)phenyl)-N-((2-(2-methoxyphenyl)-6-(trifluoromethyl)pyridin-3-yl)methyl)propanamide]	43 nM
COc1cccc(-c2nc(C(F)(F)F)ccc2CNC(=O)C(C)c2ccc(CNS(C)(=O)=O)c(F)c2)c1 (stereo not shown) [Example 61, 2-(3-fluoro-4-(methylsulfonamidomethyl)phenyl)-N-((2-(3-methoxyphenyl)-6-(trifluoromethyl)pyridin-3-yl)methyl)propanamide]	53 nM
COc1ccc(-c2nc(C(F)(F)F)ccc2CNC(=O)C(C)c2ccc(CNS(C)(=O)=O)c(F)c2)cc1 (stereo not shown) [Example 62, 2-(3-fluoro-4-(methylsulfonamidomethyl)phenyl)-N-((2-(4-methoxyphenyl)-6-(trifluoromethyl)pyridin-3-yl)methyl)propanamide]	59 nM
CCOc1cccc(-c2nc(C(F)(F)F)ccc2CNC(=O)C(C)c2ccc(CNS(C)(=O)=O)c(F)c2)c1 (stereo not shown) [Example 64, N-((2-(3-ethoxyphenyl)-6-(trifluoromethyl)pyridin-3-yl)methyl)-2-(3-fluoro-4-(methylsulfonamidomethyl)phenyl)propanamide]	28 nM

Further lines, results first:

Ki	Structure (SMILES)
72 nM	COc1ccc(-c2nc(C(F)(F)F)ccc2CNC(=O)C(C)c2ccc(CNS(C)(=O)=O)c(F)c2)cn1 (stereo not shown) [Example 68, 2-(3-fluoro-4-(methylsulfonamidomethyl)phenyl)-N-((6′-methoxy-6-(trifluoromethyl)-2,3′-bipyridin-3-yl)methyl)propanamide]
24 nM	CC(C(=O)NCc1ccc(C(F)(F)F)nc1-c1cncc(Cl)c1)c1ccc(CNS(C)(=O)=O)c(F)c1 (stereo not shown) [Example 73, N-((5′-chloro-6-(trifluoromethyl)-2,3′-bipyridin-3-yl)methyl)-2-(3-fluoro-4-(methylsulfonamidomethyl)phenyl)propanamide]
3 nM	Cc1cccc(-c2nc(C(F)(F)F)ccc2CNC(=O)C(C)c2ccc(CNS(C)(=O)=O)c(Cl)c2)c1 (stereo not shown) [Example 77, 2-(3-chloro-4-(methylsulfonamidomethyl)phenyl)-N-((2-m-tolyl-6-(trifluoromethyl)pyridin-3-yl)methyl)propanamide]
73 nM	COc1cc(C(C)C(=O)NCc2ccc(C(F)(F)F)nc2-c2cccc(C)c2)ccc1CNS(C)(=O)=O (stereo not shown) [Example 78, 2-(3-methoxy-4-(methylsulfonamidomethyl)phenyl)-N-((2-m-tolyl-6-(trifluoromethyl)pyridin-3-yl)methyl)propanamide]
68 nM	COc1cc(NC(=O)NCc2ccc(C(F)(F)F)nc2-c2cccc(C)c2)ccc1CNS(C)(=O)=O [Example 80, N-(2-methoxy-4-(3-((2-m-tolyl-6-(trifluoromethyl)pyridin-3-yl)methyl)ureido)benzyl)methanesulfonamide]
7 nM	Cc1cccc(-c2nc(C(F)(F)F)ccc2CNC(=O)Nc2ccc(CNS(C)(=O)=O)c(C)c2)c1 [Example 81, N-(2-methyl-4-(3-((2-m-tolyl-6-(trifluoromethyl)pyridin-3-yl)methyl)ureido)benzyl)methanesulfonamide]
23 nM	CCS(=O)(=O)NCc1ccc(NC(=O)NCc2ccc(C(F)(F)F)nc2-c2cccc(C)c2)cc1 [Example 82, N-(4-(3-((2-m-tolyl-6-(trifluoromethyl)pyridin-3-yl)methyl)ureido)benzyl)ethanesulfonamide]
74 nM	CCS(=O)(=O)NCc1ccc(C(C)C(=O)NCc2ccc(C(F)(F)F)nc2-c2cccc(C)c2)cc1F (stereo not shown) [Example 83, 2-(4-(ethylsulfonamidomethyl)-3-fluorophenyl)-N-((2-m-tolyl-6-(trifluoromethyl)pyridin-3-yl)methyl)propanamide]
9 nM	Cc1cccc(-c2nc(C(F)(F)F)ccc2CNC(=O)Nc2ccc(CNS(N)(=O)=O)cc2)c1 [Example 84, 1-{[2-m-tolyll-6-(trifluoromethyl)pyridin-3-yl]methyl}-3-{4-[(sulfamoylamino)methyl]phenyl}urea]
3 nM	Cc1cccc(-c2nc(C(F)(F)F)ccc2CNC(=O)C(C)c2ccc(CNS(N)(=O)=O)c(F)c2)c1 (stereo not shown) [Example 85, 2-(3-fluoro-4-((sulfamoylamino)methyl)phenyl)-N-((2-m-tolyl-6-(trifluoromethyl)pyridin-3-yl)methyl)propanamide]
6 nM	Cc1cccc(-c2nc(C(F)(F)F)ccc2CNC(=O)Nc2ccc(CNS(N)(=O)=O)c(F)c2)c1 [Example 86, 1-{3-fluoro-4-[(sulfamoylamino)methyl]phenyl}-3-{[2-m-tolyl-6-(trifluoromethyl)pyridin-3-yl]methyl}urea]
7 nM	Cc1cccc(-c2nc(C(F)(F)F)ccc2CNC(=O)C(C)c2ccc(CNS(N)(=O)=O)cc2)c1 (stereo not shown) [Example 88, 2-(4-((sulfamoylamino)methyl)phenyl)-N-((2-m-tolyl-6-(trifluoromethyl)pyridin-3-yl)methyl)propanamide]

Same assay, conditions: inhibition at 5 μM, read-out: (f) inhibition (human being), Cap, @5 μM

Structure (SMILES)	inhibition at 5 µM
CC(C(=O)NCc1ccc(C(F)(F)F)nc1-c1cccc(O)c1)c1ccc(CNS(C)(=O)=O)c(F)c1 (stereo not shown) [Example 59, 2-(3-fluoro-4-(methylsulfonamidomethyl)phenyl)-N-((2-(3-hydroxyphenyl)-6-(trifluoromethyl)pyridin-3-yl)methyl)propanamide]	20%
CC(C(=O)NCc1ccc(C(F)(F)F)nc1-c1cccnc1)c1ccc(CNS(C)(=O)=O)c(F)c1 (stereo not shown) [Example 67, 2-(3-fluoro-4-(methylsulfonamidomethyl)phenyl)-N-((6-(trifluoromethyl)-2,3′-bipyridin-3-yl)methyl)propanamide]	15%

Results, then the compound that gave them:

inhibition at 5 µM	Structure (SMILES)
49%	COc1cncc(-c2nc(C(F)(F)F)ccc2CNC(=O)C(C)c2ccc(CNS(C)(=O)=O)c(F)c2)c1 (stereo not shown) [Example 69, 2-(3-fluoro-4-(methylsulfonamidomethyl)phenyl)-N-((5′-methoxy-6-(trifluoromethyl)-2,3′-bipyridin-3-yl)methyl)propanamide]
19%	Cc1ncccc1-c1nc(C(F)(F)F)ccc1CNC(=O)C(C)c1ccc(CNS(C)(=O)=O)c(F)c1 (stereo not shown) [Example 71, 2-(3-fluoro-4-(methylsulfonamidomethyl)phenyl)-N-((2′-methyl-6-(trifluoromethyl)-2,3′-bipyridin-3-yl)methyl)propanamide]
27%	Cc1ccc(-c2nc(C(F)(F)F)ccc2CNC(=O)C(C)c2ccc(CNS(C)(=O)=O)c(F)c2)cn1 (stereo not shown) [Example 72, 2-(3-fluoro-4-(methylsulfonamidomethyl)phenyl)-N-((6′-methyl-6-(trifluoromethyl)-2,3′-bipyridin-3-yl)methyl)propanamide]
